Reference: US20130040935A1, “CYCLIC KETO-ENOLS FOR THERAPY” (BAYER INTELLECTUAL PROPERTY GMBH, priority 2010, published 2013)
Where two headings read alike, the source gives them in different places.

Key:
MDA-MB-468 = assay: Cell proliferation assay (CellTiter-Glo, 96 h), MDA-MB-468; type: cell-based; conditions: Homo sapiens
Experimental: (§1) In accordance with the invention, the substances were tested in cell-based assays for the ability of the substances of inhibiting tumour cell proliferation after a 96-hour incubation with the substance. Cell viability was tested using the CellTiter-Glo® luminescent cell viability assay (Promega). The cells were sown at a density of 2000-5000 cells/well (depending on the cell line) in 100 μl growth medium on 96-well microtitre plates. For each cell line examined, cells were sown on a separate plate to determine the luminescence at t=0 hours and t=96 hours. After overnight incubation at 37° C., the luminescence values for the t=0 samples were determined. The dose plates for the t=96 hours points in time were treated with substances diluted with growth medium. The cells were then incubated at 37° C. for 96 hours, and the luminescence values for the t=96 hours sample were then determined. For data analysis, the t=0 values were subtracted from the t=96 hour values for treated and untreated samples. The differences in luminescence in percent between substance-treated samples and control values were used to determine the growth inhibition in percent.
(§2) The substances were tested in the following cell lines which represent the stated indications in an exemplary manner: […]

[1] = biological target: T1, human ACC1 (acetyl-coenzyme A carboxylase alpha transcript variant 1) (Homo sapiens, UniProt Q13085); assay: Human ACC1 enzyme assay, Assay B1 (ADP-Glo); type: biochemical
T1 construct: FLAG (C); made in house; host or cells: baculovirus-infected insect cells (Hi5)

MDA-MB-436 = assay: Cell proliferation assay (CellTiter-Glo, 96 h), MDA-MB-436; type: cell-based; conditions: Homo sapiens
Experimental: as §1, §2

Miapaca = assay: Cell proliferation assay (CellTiter-Glo, 96 h), Miapaca; type: cell-based; conditions: Homo sapiens, MIA PaCa-2
Experimental: as §1, §2

[2] = system: malonyl-CoA in a tumour (human MCF-7 breast cancer cells); assay: Mode-of-action experiment: intratumour malonyl-CoA in MCF-7 tumours after oral administration; type: in vivo, female nude mice (NMRI-nude (nu/nu)); conditions: Mus musculus, after 7 h
Experimental: Mode-of-Action Experiment
Prior to the determination of the activity in the MCF-7 model, some of the test substances were examined in a “mode of action” experiment. The principle of this experiment is that short-term application of a test substance capable of inhibiting ACC1 and/or ACC2 in a living organism after oral administration reduces malonyl-CoA in a tumour. To this end, in the experiment 2 million human MCF-7 breast cancer cells were injected subcutaneously into female nude mice (NMRI-nude (nu/nu) mice, Taconic M&B A/S, 1 day beforehand administration of a pellet for the release of oestrogen over a period of at least 60 days). Once the tumour extended to an area of about 60-70 mm^2, the test substance was administered orally over a period of 1-3 days, and at defined points in time the intratumour content of malonyl-CoA was then determined and compared to the vehicle control. The method is described in Anal Chem 2008 Aug. 1; 80(15):5736-42. Epub 2008 Jul. 9.).

MCF7 = assay: Cell proliferation assay (CellTiter-Glo, 96 h), MCF7; type: cell-based; conditions: Homo sapiens
Procedure, shortened: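 Tumour cells are plated overnight, a baseline luminescence plate is read, and parallel plates receive compound for 96 hours at 37° C. before CellTiter-Glo measurement. Percent inhibition uses baseline-subtracted values relative to untreated cells.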

[3] = biological target: human ACC2 (acetyl-coenzyme A carboxylase 2) (Homo sapiens, UniProt O00763); assay: Human ACC2 enzyme assay, Assay B2 (ADP-Glo);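 also: human ACC2 activity read as ADP product, detected by luciferase glow luminescence after residual ATP removal, enzyme near 2 ng/µl in linear range, detection steps at 22 °C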
human ACC2 (acetyl-coenzyme A carboxylase 2), sequence (O00763 27-2458 limits assumed): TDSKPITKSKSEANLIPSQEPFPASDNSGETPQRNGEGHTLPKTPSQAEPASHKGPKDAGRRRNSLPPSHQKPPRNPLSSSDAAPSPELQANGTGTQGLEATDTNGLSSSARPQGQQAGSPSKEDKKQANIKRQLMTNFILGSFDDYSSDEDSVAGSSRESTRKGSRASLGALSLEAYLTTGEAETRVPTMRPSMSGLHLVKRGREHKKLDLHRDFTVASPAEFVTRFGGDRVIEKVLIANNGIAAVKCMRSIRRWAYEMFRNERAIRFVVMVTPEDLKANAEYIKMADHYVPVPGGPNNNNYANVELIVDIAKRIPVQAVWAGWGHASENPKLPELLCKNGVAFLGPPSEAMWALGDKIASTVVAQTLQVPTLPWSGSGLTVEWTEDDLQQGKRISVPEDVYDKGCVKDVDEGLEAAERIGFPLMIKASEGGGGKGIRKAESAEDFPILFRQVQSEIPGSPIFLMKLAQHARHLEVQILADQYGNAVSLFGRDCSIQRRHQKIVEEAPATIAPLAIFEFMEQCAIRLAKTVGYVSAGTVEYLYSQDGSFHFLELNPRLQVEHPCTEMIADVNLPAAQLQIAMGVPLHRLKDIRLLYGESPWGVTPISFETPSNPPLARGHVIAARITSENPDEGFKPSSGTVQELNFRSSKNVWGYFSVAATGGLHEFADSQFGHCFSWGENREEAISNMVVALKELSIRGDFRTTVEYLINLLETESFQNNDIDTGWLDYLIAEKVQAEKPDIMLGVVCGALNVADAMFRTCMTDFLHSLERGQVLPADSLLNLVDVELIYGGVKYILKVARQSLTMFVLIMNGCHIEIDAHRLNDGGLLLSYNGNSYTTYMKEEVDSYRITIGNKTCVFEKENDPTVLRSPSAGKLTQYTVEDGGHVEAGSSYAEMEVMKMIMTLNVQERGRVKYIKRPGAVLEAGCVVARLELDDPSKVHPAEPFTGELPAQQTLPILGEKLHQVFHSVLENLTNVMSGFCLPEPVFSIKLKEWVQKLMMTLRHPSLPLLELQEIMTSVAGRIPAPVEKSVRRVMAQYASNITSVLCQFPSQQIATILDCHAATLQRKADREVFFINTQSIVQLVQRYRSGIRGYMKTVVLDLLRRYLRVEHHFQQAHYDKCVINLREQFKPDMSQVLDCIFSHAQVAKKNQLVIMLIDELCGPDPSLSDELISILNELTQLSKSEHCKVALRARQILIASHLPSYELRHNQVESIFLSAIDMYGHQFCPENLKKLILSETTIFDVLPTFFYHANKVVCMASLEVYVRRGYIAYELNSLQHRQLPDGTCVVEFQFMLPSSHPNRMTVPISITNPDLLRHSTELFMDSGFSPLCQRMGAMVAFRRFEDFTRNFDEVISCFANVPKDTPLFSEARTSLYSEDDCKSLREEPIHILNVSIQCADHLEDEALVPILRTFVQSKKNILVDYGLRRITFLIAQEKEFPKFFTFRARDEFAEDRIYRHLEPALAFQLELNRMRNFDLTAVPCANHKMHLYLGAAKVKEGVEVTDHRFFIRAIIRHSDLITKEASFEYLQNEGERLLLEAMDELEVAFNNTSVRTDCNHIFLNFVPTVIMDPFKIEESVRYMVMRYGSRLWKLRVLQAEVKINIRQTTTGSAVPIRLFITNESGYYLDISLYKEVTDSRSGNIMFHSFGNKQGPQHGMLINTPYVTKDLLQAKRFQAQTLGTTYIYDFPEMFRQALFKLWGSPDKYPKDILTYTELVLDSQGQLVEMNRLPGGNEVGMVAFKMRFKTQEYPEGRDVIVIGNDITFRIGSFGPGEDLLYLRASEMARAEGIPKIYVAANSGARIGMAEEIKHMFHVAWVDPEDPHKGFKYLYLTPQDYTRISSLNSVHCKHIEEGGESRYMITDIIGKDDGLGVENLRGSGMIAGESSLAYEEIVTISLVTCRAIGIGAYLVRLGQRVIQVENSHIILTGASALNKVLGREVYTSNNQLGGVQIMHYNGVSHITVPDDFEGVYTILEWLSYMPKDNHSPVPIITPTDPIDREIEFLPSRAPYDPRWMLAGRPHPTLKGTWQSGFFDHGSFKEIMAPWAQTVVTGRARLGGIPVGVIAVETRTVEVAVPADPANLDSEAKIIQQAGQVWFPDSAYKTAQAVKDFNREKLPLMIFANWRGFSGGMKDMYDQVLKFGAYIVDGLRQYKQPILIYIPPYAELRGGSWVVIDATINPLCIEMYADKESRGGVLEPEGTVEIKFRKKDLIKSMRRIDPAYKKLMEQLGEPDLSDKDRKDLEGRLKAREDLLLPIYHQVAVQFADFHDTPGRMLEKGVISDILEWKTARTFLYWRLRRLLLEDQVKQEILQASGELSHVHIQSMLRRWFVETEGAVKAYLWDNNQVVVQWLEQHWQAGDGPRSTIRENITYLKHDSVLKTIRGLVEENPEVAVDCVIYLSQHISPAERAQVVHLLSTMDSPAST

HCC-1937 = assay: Cell proliferation assay (CellTiter-Glo, 96 h), HCC-1937; type: cell-based; conditions: Homo sapiens, HCC1937
Experimental: as §1, §2

KM12 = assay: Cell proliferation assay (CellTiter-Glo, 96 h), KM12; type: cell-based; conditions: Homo sapiens, 96-hour incubation
Experimental: as §1, §2

recombinant human ACC1 = recombinant human ACC1 (Homo sapiens, UniProt Q13085); assay: Human ACC1 enzyme assay, Assay A1 (HTRF ADP immunoassay);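 also: ADP generated by the enzyme quantified via competitive time-resolved FRET, read as europium cryptate to d2 energy transfer after 1 h at 22 °C with labelled ADP tracer and anti-ADP antibody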
Experimental: The inhibitory activity of the substances of this invention with regard to acetyl-CoA carboxylase 1 (ACC1) was measured using the ACC1 assay described in the paragraphs below. The basic principle of the assay is the measurement of adenosine diphosphate (ADP), which is formed as a by-product, by means of an HTRF®-based competitive immunoassay (HTRF=Homogeneous Time Resolved Fluorescence).
Typical concentrations were in the range of 2.5 ng/μl.
The amount of complex between d2-labelled ADP and europium cryptate-labelled anti-ADP antibody was then determined by measuring the resonance energy transfer from the europium cryptate to d2.

[4] = biological target: acetyl-CoA carboxylase 2 (ACC2) (Homo sapiens, UniProt O00763); assay: Human ACC2 enzyme assay, Assay A2 (HTRF ADP immunoassay);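 also: ADP generated by ACC2 quantified via competitive time-resolved FRET between europium cryptate anti-ADP antibody and d2-tagged ADP, enzyme kept in linear range near 0.6 ng/µl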
acetyl-CoA carboxylase 2 (ACC2), sequence (O00763 39-2458 limits assumed): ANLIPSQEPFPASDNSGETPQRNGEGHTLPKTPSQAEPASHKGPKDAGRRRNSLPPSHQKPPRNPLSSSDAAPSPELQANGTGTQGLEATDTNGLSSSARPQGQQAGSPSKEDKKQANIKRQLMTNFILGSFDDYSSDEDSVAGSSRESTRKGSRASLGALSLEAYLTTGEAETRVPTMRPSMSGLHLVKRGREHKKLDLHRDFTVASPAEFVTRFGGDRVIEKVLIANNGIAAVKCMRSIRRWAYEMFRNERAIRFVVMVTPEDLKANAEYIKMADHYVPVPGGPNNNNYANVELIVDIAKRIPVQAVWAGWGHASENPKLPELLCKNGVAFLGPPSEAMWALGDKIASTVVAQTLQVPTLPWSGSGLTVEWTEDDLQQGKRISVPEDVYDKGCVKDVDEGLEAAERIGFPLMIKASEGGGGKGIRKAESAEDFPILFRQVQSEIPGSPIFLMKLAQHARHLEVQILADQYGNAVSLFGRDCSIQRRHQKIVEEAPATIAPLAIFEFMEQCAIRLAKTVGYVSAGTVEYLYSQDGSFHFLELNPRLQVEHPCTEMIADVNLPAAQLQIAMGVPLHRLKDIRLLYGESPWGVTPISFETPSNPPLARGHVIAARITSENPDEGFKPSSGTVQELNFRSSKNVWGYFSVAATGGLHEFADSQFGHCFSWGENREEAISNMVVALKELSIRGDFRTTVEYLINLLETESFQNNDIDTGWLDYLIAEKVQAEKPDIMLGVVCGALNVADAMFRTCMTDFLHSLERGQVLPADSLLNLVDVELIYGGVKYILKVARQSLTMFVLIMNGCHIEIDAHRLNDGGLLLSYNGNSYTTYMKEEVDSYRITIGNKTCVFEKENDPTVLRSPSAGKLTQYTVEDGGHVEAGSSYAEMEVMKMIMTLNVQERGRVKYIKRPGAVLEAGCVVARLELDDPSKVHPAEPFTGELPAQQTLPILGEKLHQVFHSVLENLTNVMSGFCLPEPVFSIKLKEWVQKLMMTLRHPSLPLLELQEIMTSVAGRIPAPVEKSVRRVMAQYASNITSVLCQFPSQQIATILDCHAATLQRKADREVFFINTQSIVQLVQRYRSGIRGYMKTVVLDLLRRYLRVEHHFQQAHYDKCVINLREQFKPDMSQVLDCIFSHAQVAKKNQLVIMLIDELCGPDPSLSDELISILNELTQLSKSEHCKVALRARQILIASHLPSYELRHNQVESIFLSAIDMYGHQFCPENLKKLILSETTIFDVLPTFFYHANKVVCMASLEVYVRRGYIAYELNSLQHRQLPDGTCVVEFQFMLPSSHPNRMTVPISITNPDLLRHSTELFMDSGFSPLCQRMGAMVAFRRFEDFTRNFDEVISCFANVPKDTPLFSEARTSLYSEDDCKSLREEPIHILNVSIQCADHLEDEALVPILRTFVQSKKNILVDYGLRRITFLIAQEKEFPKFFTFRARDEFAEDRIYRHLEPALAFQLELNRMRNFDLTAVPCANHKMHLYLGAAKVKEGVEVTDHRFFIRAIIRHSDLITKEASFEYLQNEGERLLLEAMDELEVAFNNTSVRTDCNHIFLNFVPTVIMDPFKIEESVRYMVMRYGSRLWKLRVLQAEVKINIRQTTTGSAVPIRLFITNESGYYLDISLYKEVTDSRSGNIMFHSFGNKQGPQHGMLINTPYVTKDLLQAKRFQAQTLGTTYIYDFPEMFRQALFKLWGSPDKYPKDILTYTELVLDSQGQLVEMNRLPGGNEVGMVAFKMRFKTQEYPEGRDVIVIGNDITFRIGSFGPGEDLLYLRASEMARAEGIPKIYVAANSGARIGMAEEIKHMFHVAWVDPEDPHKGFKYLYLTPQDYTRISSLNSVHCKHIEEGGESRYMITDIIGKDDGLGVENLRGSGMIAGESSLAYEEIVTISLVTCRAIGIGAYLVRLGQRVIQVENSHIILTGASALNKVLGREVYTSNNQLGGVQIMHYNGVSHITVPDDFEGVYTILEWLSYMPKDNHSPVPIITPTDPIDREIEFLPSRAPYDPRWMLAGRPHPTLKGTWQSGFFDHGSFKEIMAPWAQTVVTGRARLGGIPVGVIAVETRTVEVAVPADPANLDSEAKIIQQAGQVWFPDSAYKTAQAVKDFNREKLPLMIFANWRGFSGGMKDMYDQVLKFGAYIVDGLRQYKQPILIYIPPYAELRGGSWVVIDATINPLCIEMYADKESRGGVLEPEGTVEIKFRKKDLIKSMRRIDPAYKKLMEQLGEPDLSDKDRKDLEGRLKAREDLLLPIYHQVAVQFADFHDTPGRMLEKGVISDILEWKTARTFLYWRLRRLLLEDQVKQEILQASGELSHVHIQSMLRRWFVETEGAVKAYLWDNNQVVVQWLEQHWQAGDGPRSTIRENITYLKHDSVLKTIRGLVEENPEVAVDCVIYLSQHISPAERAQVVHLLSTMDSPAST

HEC1A = assay: Cell proliferation assay (CellTiter-Glo, 96 h), HEC1A; type: cell-based; conditions: Homo sapiens, HEC-1-A; 96-hour incubation
Experimental: as §1, §2

ECC1 = assay: Cell proliferation assay (CellTiter-Glo, 96 h), ECC1; type: cell-based; conditions: Homo sapiens, ECC-1; 96-hour incubation
Experimental: as §1, §2

Du145 = assay: Cell proliferation assay (CellTiter-Glo, 96 h), Du145; type: cell-based; conditions: Homo sapiens, DU-145; 96-hour incubation
Experimental: as §1, §2

PC3 = assay: Cell proliferation assay (CellTiter-Glo, 96 h), PC3; type: cell-based; conditions: Homo sapiens, PC-3; 96-hour incubation
Experimental: as §1, §2

[5] = biological target: ACCase enzyme extracted from oat seedlings (Avena sativa, UniProt A0ACD5YD93); assay: Non-human ACCase assay (malachite green phosphate detection); type: biochemical; conditions: comparative compounds, Table V.2; read-out: ACC-non human IC50
Experimental: The assay was carried out at room temperature in a transparent 384-well microtitre plate. It determined the inorganic phosphate released from the ATP in the ACCase reaction.
The test mixture contained 50 mM Tris-HCl pH 8.3, 50 mM KCl, 2.5 mM MgCl2, 0.5 mM ATP, 0.8 mM dithiothreitol (DTT), 30 mM NaHCO3, 0.1 mM acetyl-CoA, 0.04% bovine serum albumin and 0.4 μg partially purified ACCase enzyme in a final volume of 40 μl. After 45 minutes of incubation, the reaction was stopped with 150 μl of malachite green solution, and the absorption at […] was read after 30 minutes.
The malachite green (MG) solution was prepared by mixing 3 parts of 0.6 mM MG-HCl solution in distilled water with 1 part of 8.5 mM ammonium molybdate in 4 M HCl. The solution was allowed to stand for 30 minutes. After filtration through a 0.45 μm polytetrafluoroethylene (PTFE) filter, 0.1 part of Triton X-100 (1.5%) in distilled water was added.
ACCase enzyme was extracted from oat seedlings 9 days after sowing and partially purified by precipitation with 0-40% ammonium sulphate followed by ion exchange chromatography on Q-Sepharose.

[6] = MCF7, Table 7, 96-hour incubation
[7] = Assay B1, read-out: ACC 1 (=B1) IC50
[8] = MCF7, 10 mg/kg oral, MCF-7 tumour in nude mice, vs vehicle

Row | SMILES | IC50 [1] | inhibition in vivo at 10 mg/kg ([2]; MCF7, po, 10 mg/kg, vs Vehicle) | IC50 (MCF7; [6]) | IC50 [3] | IC50 (KM12) | IC50 (recombinant human ACC1) | IC50 [4] | further results
1 | Cc1ccc(-c2ccc(Cl)cc2)c(C)c1C1=C(O)C2(CCOCC2)NC1=O [1-1, 3-(4′-chloro-2,4-dimethylbiphenyl-3-yl)-4-hydroxy-8-oxa-1-azaspiro[4.5]dec-3-en-2-one] | 245 nM | 39% | 800 nM | > 20000 nM | – | – | – | IC50 (MDA-MB-468; MDA-MB-468, 96-hour incubation): 274 nM; IC50 (MDA-MB-436; MDA-MB-436, 96-hour incubation): 140 nM; IC50 (Miapaca; 96-hour incubation): 827 nM; IC50 (HCC-1937; 96-hour incubation): 1080 nM
2 | Cc1ccc(-c2ccc(Cl)cc2)cc1C1=C(O)C2(CCOCC2)NC1=O [1-6, 3-(4′-chloro-4-methylbiphenyl-3-yl)-4-hydroxy-8-oxa-1-azaspiro[4.5]dec-3-en-2-one] | 133 nM | 68% | 209 nM | 9340 nM | – | – | – | IC50 (MDA-MB-468; MDA-MB-468, 96-hour incubation): 555 nM; IC50 (MDA-MB-436; MDA-MB-436, 96-hour incubation): 313 nM; IC50 (Miapaca; 96-hour incubation): 1250 nM; IC50 (HCC-1937; 96-hour incubation): 873 nM
3 | O=C1N[C@]2(CC[C@@H](OCC(F)(F)F)CC2)C(O)=C1c1cc(-c2ccc(Cl)cc2)ccc1Cl [1-29, (5s,8s)-3-(4,4′-dichlorobiphenyl-3-yl)-4-hydroxy-8-(2,2,2-trifluoroethoxy)-1-azaspiro[4.5]dec-3-en-2-one] | 153 nM | 93% | 32 nM | 2620 nM | 132 nM | – | – | –
4 | Cc1ccc(-c2ccc(Cl)cc2)cc1C1=C(O)C2(CCC(OCC(F)(F)F)CC2)NC1=O (centres unmarked) [1-33, 3-(4′-chloro-4-methylbiphenyl-3-yl)-4-hydroxy-8-(2,2,2-trifluoroethoxy)-1-azaspiro[4.5]dec-3-en-2-one] | – | 88% | 27 nM | 2010 nM | – | – | – | IC50 (MDA-MB-468; MDA-MB-468, 96-hour incubation): 74 nM; IC50 [1, 7]: 234 nM; IC50 (MDA-MB-436; MDA-MB-436, 96-hour incubation): 70 nM; IC50 (Miapaca; 96-hour incubation): 193 nM; IC50 (HCC-1937; 96-hour incubation): 108 nM
5 | CO[C@]1(C)CC[C@]2(CC1)NC(=O)C(c1c(C)ccc(-c3ccc(Cl)cc3)c1C)=C2O [1-87, (5r,8r)-3-(4′-chloro-2,4-dimethylbiphenyl-3-yl)-4-hydroxy-8-methoxy-8-methyl-1-azaspiro[4.5]dec-3-en-2-one] | 378 nM | 71% | – | 10500 nM | – | 540 nM | 7300 nM | –
6 | COC[C@H]1CC[C@]2(CC1)NC(=O)C(c1cc(-c3ccc(F)c(F)c3)ccc1C)=C2O [1-112, (5s,8s)-3-(3′,4′-Difluoro-4-methylbiphenyl-3-yl)-4-hydroxy-8-(methoxymethyl)-1-azaspiro[4.5]dec-3-en-2-one] | 200 nM | – | 79 nM | 8430 nM | 174 nM | 167 nM | 3910 nM | –
7 | CO[C@H]1CC[C@]2(CC1)NC(=O)C(c1cc(-c3ccc(Cl)cc3)ccc1Cl)=C2O [1-120, (5s,8s)-3-(4,4′-Dichlorobiphenyl-3-yl)-4-hydroxy-8-methoxy-1-azaspiro[4.5]dec-3-en-2-one] | 145 nM | – | 70 nM | 2260 nM | 714 nM | 250 nM | 1280 nM | –
8 | Cc1ccc(-c2ccc(F)c(F)c2)cc1C1=C(O)[C@]2(CC[C@H](C(F)(F)F)CC2)NC1=O [1-128, (5s,8s)-3-(3′,4′-Difluoro-4-methylbiphenyl-3-yl)-4-hydroxy-8-(trifluoromethyl)-1-azaspiro[4.5]dec-3-en-2-one] | – | – | 33 nM | 4410 nM | 74 nM | 195 nM | 2740 nM | IC50 [1, 7]: 157 nM; IC50 (HEC1A): 328 nM; IC50 (ECC1): 137 nM; IC50 (Du145): 29 nM; IC50 (PC3): 20 nM
9 | Cc1cc(C)c(-c2ccc(Cl)cc2)cc1C1=C(O)[C@]2(CC[C@@]3(CCCO3)CC2)OC1=O [2-30, (5r,8s)-3-(4′-chloro-4,6-dimethylbiphenyl-3-yl)-4-hydroxy-1,9-dioxadispiro[4.2.4.2]tetradec-3-en-2-one] | 696 nM | – | – | 243 nM | – | – | – | IC50 (MDA-MB-468; MDA-MB-468 cells): 153 nM; IC50 (MDA-MB-436; MDA-MB-436 cells): 115 nM; IC50 (Miapaca; MiaPaca cells): 255 nM; inhibition in vivo at 10 mg/kg [2, 8]: 36%; IC50 (MCF7; MCF7 cells): 64 nM; IC50 (HCC-1937; HCC-1937 cells): 1500 nM
10 | Cc1ccc(-c2ccc(Cl)cc2)cc1C1=C(O)C2(CCC(OCC(F)(F)F)CC2)OC1=O (centres unmarked) [2-33, 3-(4′-chloro-4-methylbiphenyl-3-yl)-4-hydroxy-8-(2,2,2-trifluoroethoxy)-1-oxaspiro[4.5]dec-3-en-2-one] | – | – | – | 5000 nM | – | – | – | IC50 ([1]; Assay B1, ADP-Glo, read-out: ACC 1 (=B1) IC50): 227 nM; inhibition in vivo at 10 mg/kg [2, 8]: 39%; IC50 (MCF7; MCF7 cells): 246 nM
11 | CCc1cc(-c2ccccc2)cc(Cl)c1C1C(=O)N2CCOCCN2C1=O [V-1] | – | – | – | – | – | – | – | IC50 [5]: 0.5 nM
12 | COC1CCC2(CC1)NC(=O)C(c1c(C)cc(-c3ccc(Cl)cc3)cc1C)=C2O (centres unmarked) [V-2] | – | – | – | – | – | – | – | IC50 [5]: 40 nM
13 | COC1CCC2(CC1)NC(=O)C(c1c(C)cc(OC(F)(F)F)cc1Cl)=C2O (centres unmarked) [V-3] | – | – | – | – | – | – | – | IC50 [5]: 2 nM
